Experiment [1] concerns the target T1, recombinant HSF1 DNA-binding domain (DBD) (Homo sapiens, UniProt Q00613).
T1 sequence (Q00613 15-120): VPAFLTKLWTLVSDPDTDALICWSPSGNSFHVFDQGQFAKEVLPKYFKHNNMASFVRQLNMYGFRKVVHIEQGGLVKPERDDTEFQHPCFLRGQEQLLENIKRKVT
In words: Differential Scanning Fluorimetry (DSF), HSF1 DBD melting temperature. Conditions: Table 3; 5 μM HSF1 DBD, 25PM Compound; positive = stabilizes, negative = destabilizes HSF1.

Experiment [2] addresses T2, purified recombinant human HSF1 (HSF1 DNA binding domain) (Homo sapiens, UniProt Q00613).
T2 sequence (Q00613 15-120): T1 sequence (Q00613 15-120)
In words: Melting temperature of HSF1 DBD with HSF1 degrader compounds (Sypro orange). Conditions: read-out: ΔTm (° C.). How it is done: The melting temperature (ΔTm) for purified recombinant human HSF1 (HSF1 DNA binding domain) was determined in the presence of HSF1 degrader compounds shown in Table 5 and compared to the solvent DMSO. Sypro orange dye was added to the HSF1 DBD (5 micromolar final concentration) in buffer, mixed and distributed to wells in 384 well microtiter plates. HSF1 degrader compound (12.5 micromolar) or DMSO solvent was added to three replicate wells per compound concentration, mixed and plates loaded into a Quant Studio thermnocycler and run on a temperature gradient from 25° C. to 85° C. with increments of 0.5° C. steps. Melting curves were obtained and analyzed using the ThermnoFisher Shift Software 1.4 fitted with a Boltzmann equation to determine the change in melting temperature of the protein in the presence of DMSO as compared to compound. The difference in the melting temperature under these two conditions was assigned as the change in melting temperature of ΔTm.

The test system of experiment [3] is C4-2 prostate cancer cells. In words: C4-2 cell proliferation, Cell Titre Glo. Format: cell-based. Conditions: Homo sapiens, 48-hour period, 9-point dilution series, read-out: Cell Viability IC50. How it is done:
Next, cell viability of C4-2 prostate cancer cells was determined. C4-2 prostate cancer cells were grown in RMPI-1640 (no L-glutamine, Gibco 21870076) supplemented with 10% fetal bovine […] (non-heat-inactivated, Cytiva Hyclone SH30071.03). […] A 9-point dilution series was used to assess the ability of each compound to inhibit the growth of C4-2 prostate cancer cells over a 48-hour period, as compared to negative control solvent, DMSO. Cell proliferation was measured by the Cell Titre Glo assay using 384 well microtiter plate reader to quantitate luminescence. The IC50 was determined from the values obtained.

The mark [4] stands for this setting: 12.5 micromolar compound, 5 micromolar HSF1 DBD, compared to DMSO.

Consider 32 molecules from patent publication US20240317727A1 (Duke University, priority 2018, published 2024).

Like-named read-outs stand apart in the source and are kept apart here.

The term ΔTm denotes the shift of the melting midpoint relative to a reference. Usually IC50 stands for the midpoint of a concentration-inhibition curve. On to `N#Cc1ccc(NC(=O)Nc2ccc3c(c2)S(=O)(=O)C=C3)cc1CCN1CCOCC1` [Compound 292, 1-(4-cyano-3-(2-morpholinoethyl)phenyl)-3-(1,1-dioxidobenzo[b]thiophen-6-yl)urea], for which, in experiment [1], the shift in melting temperature (ΔTm) at 25 µM amounted to 3.33 °C. The shift in melting temperature (ΔTm) at 12.5 µM in experiment [2] was -0.76 °C. Besides, the IC50 in experiment [3] was > 10 µM.
For `N#Cc1ccc(NC(=O)Nc2ccc(C#N)cc2)cc1` [Compound 253, 1,3-bis(4-cyanophenyl)urea], the ΔTm at 12.5 µM in experiment [2] (setting [4]) was found to be 1.91 °C. The IC50 in experiment [3] was > 10 µM.
Taken in the same sequence, the figures for `N#Cc1ccc(NC(=O)Nc2ccc3c(c2)S(=O)(=O)CCC3)cc1` [Compound 279] were 1.29 °C and > 10 µM.
With `N#Cc1ccc(NC(=O)Nc2ccc3occc3c2)cc1` [Compound 246, 1-(benzofuran-5-yl)-3-(4-cyanophenyl)urea], the thermal shift (ΔTm) at 12.5 µM in experiment [2] (setting [4]) came out at 3.23 °C. Also, the IC50 in experiment [3] was > 10 µM.
With `N#Cc1ccc(NC(=O)Nc2ccc3c(c2)S(=O)(=O)C=C3)cc1OCCN1CCOCC1` [Compound 295, 1-(4-cyano-3-(2-morpholinoethoxy)phenyl)-3-(1,1-dioxidobenzo[b]thiophen-6-yl)urea], the thermal shift (ΔTm) at 12.5 µM in experiment [2] was -0.03 °C. In addition, in experiment [3], the half-inhibitory concentration (IC50) was > 10 µM.
Regarding `Cc1cc(NC(=O)Nc2ccc3c(c2)S(=O)(=O)C=C3)ccc1C#N` [Compound 261, 1-(4-cyano-3-methylphenyl)-3-(1,1-dioxidobenzo[b]thiophen-6-yl)urea], the ΔTm at 12.5 µM in experiment [2] (setting [4]) was 1.06 °C. Besides, the half-inhibitory concentration (IC50) in experiment [3] was 2.29 µM.
With `N#CC1CCC(NC(=O)Nc2ccc(Cl)c(C(F)(F)F)c2)CC1` (stereo not shown) [Compound 300, 1-(4-chloro-3-(trifluoromethyl)phenyl)-3-(4-cyanocyclohexyl)urea], the ΔTm at 12.5 µM in experiment [2] is -0.73 °C. Also, the IC50 in experiment [3] was > 10 µM.
With `N#Cc1ccc(NC(=O)Nc2ccc(Cl)c([N+](=O)[O-])c2)cc1` [Compound 239, 1-(4-chloro-3-nitrophenyl)-3-(4-cyanophenyl)urea], the thermal shift (ΔTm) at 12.5 µM in experiment [2] (setting [4]) stood at 3.13 °C. Further, the half-maximal inhibitory concentration (IC50) in experiment [3] is 2.94 µM.
Regarding `N#Cc1ccc(NC(=O)Nc2ccc(CCN3CCOCC3)c(S(=O)(=O)C(F)(F)F)c2)cc1` [Compound 289, 1-(4-cyanophenyl)-3-(4-(2-morpholinoethyl)-3-((trifluoromethyl)-sulfonyl)phenyl)urea], the ΔTm at 25 µM in experiment [1] was 3.2 °C. The ΔTm at 12.5 µM in experiment [2] (setting [4]) stood at 2.6 °C. Besides, the half-maximal inhibitory concentration (IC50) in experiment [3] stood at 8.91 µM.
As to `COc1cc(NC(=O)Nc2ccc3occc3c2)ccc1C#N` [Compound 251], the ΔTm at 12.5 µM in experiment [2] (setting [4]) worked out at 2.06 °C. The IC50 in experiment [3] was > 10 µM.
For `N#Cc1cnc(NC(=O)Nc2ccc3c(c2)S(=O)(=O)C=C3)nc1` [Compound 270, 1-(5-cyanopyrimidin-2-yl)-3-(1,1-dioxidobenzo[b]thiophen-6-yl)urea], the ΔTm at 12.5 µM in experiment [2] (setting [4]) was 0.01 °C. Also, in experiment [3], the IC50 is > 10 µM.
`N#Cc1ccc(NC(=O)Nc2ccc(F)cc2)cc1` [Compound 255, 1-(4-cyanophenyl)-3-(4-fluorophenyl)urea]: in experiment [2] (setting [4]), the ΔTm at 12.5 µM stood at 2.22 °C. Besides, the IC50 in experiment [3] is > 10 µM.
For `N#Cc1ccc(NC(=O)Nc2ccc(Cl)c(S(=O)(=O)C(F)(F)F)c2)c(CCN2CCOCC2)c1` [Compound 298, 1-(4-chloro-3-((trifluoromethyl)sulfonyl)phenyl)-3-(4-cyano-2-(2-morpholinoethyl)phenyl)urea], in experiment [1], the ΔTm at 25 µM is 2.28 °C. In addition, the ΔTm at 12.5 µM in experiment [2] (setting [4]) turned out to be 1 °C. Also, in experiment [3], the IC50 was > 10 µM.
For `COc1cc(NC(=O)Nc2ccc3nsnc3c2)ccc1C#N` [Compound 250, 1-(benzo[c][1,2,5]thiadiazol-5-yl)-3-(4-cyano-3-methoxyphenyl)urea], the ΔTm at 12.5 µM in experiment [2] (setting [4]) stood at 1.3 °C. Also, the IC50 in experiment [3] was > 10 µM.
`N#Cc1ccc(NC(=O)Nc2ccc(F)cc2)cc1C(F)(F)F` [Compound 254, 1-(4-cyano-3-(trifluoromethyl)phenyl)-3-(4-fluorophenyl)urea]: in experiment [2], the shift in melting temperature (ΔTm) at 12.5 µM amounted to 1.84 °C. For the same molecule, the IC50 in experiment [3] came to 4.02 µM.
As to `CC(C)(C)c1cc(NC(=O)Nc2ccc3c(c2)S(=O)(=O)C=C3)ccc1C#N` [Compound 264, 1-(3-(tert-butyl)-4-cyanophenyl)-3-(1,1-dioxidobenzo[b]thiophen-6-yl)urea], the shift in melting temperature (ΔTm) at 12.5 µM in experiment [2] (setting [4]) amounted to 1.27 °C. For the same molecule, in experiment [3], the concentration for half-maximal inhibition (IC50) was 2.65 µM.
For `COc1cc(NC(=O)Nc2ccc(Cl)c([N+](=O)[O-])c2)ccc1C#N` [Compound 241, 1-(4-chloro-3-nitrophenyl)-3-(4-cyano-3-methoxyphenyl)urea], the ΔTm at 12.5 µM in experiment [2] (setting [4]) stood at 2.63 °C. Also, the IC50 in experiment [3] came to 5.57 µM.
Turning to `N#Cc1ccc(NC(=O)Nc2ccc3c(c2)C=CS3(=O)=O)o1` [Compound 271, 1-(5-cyanofuran-2-yl)-3-(1,1-dioxidobenzo[b]thiophen-5-yl)urea], in experiment [2] (setting [4]), the ΔTm at 12.5 µM was determined as 0.02 °C. The concentration for half-maximal inhibition (IC50) in experiment [3] is > 10 µM.
For the molecule `COc1cc(NC(=O)Nc2ccc3c(c2)S(=O)(=O)C=C3)ccc1C#N` [Compound 249, 1-(4-cyano-3-methoxyphenyl)-3-(1,1-dioxidobenzo[b]thiophen-6-yl)urea], the ΔTm at 12.5 µM in experiment [2] (setting [4]) is 1.5 °C. For the same molecule, in experiment [3], the IC50 is 4.56 µM.
Regarding `N#Cc1ccc(NC(=O)Nc2ccc3c(c2)C(=O)CC3)cc1` [Compound 283, 1-(4-cyanophenyl)-3-(3-oxo-2,3-dihydro-1H-inden-5-yl)urea], in experiment [2] (setting [4]), the thermal shift (ΔTm) at 12.5 µM was determined as 0.1 °C. The IC50 in experiment [3] was > 10 µM.
With `N#Cc1ccc(NC(=O)Nc2ccc3c(c2)S(=O)(=O)c2ccccc2-3)cc1` [Compound 277, 1-(4-cyanophenyl)-3-(5,5-dioxidodibenzo[b,d]thiophen-3-yl)urea], in experiment [2] (setting [4]), the ΔTm at 12.5 µM was -2.3 °C. Moreover, the IC50 in experiment [3] was 5.65 µM.
With `N#Cc1ncc(NC(=O)Nc2ccc3c(c2)S(=O)(=O)C=C3)cn1` [Compound 269], the shift in melting temperature (ΔTm) at 12.5 µM in experiment [2] (setting [4]) is 0.77 °C. Besides, the IC50 in experiment [3] was > 10 µM.
In the case of `CN(C)CCc1cc(NC(=O)Nc2ccc(Cl)c(S(=O)(=O)C(F)(F)F)c2)ccc1C#N` [Compound 284, 1-(4-chloro-3-((trifluoromethyl)sulfonyl)phenyl)-3-(4-cyano-3-(2-(dimethylamino)ethyl)phenyl)urea], the shift in melting temperature (ΔTm) at 12.5 µM in experiment [2] amounted to 0.62 °C. Further, the 50% inhibitory concentration (IC50) in experiment [3] is > 10 µM.
For the molecule `N#Cc1ccc(NC(=O)Nc2ccc(Cl)c([N+](=O)[O-])c2)cc1C(F)(F)F` [Compound 240, 1-(4-chloro-3-nitrophenyl)-3-(4-cyano-3-(trifluoromethyl)phenyl)urea], in experiment [2], the ΔTm at 12.5 µM stood at 3.01 °C. The IC50 in experiment [3] came to 0.563 µM.
For `N#Cc1cccc(NC(=O)Nc2ccc3c(c2)S(=O)(=O)C=C3)n1` [Compound 267, 1-(6-cyanopyridin-2-yl)-3-(1,1-dioxidobenzo[b]thiophen-6-yl)urea], the thermal shift (ΔTm) at 12.5 µM in experiment [2] (setting [4]) is -0.19 °C. In experiment [3], the IC50 is > 10 µM.
On to `N#Cc1cnc(NC(=O)Nc2ccc3c(c2)S(=O)(=O)C=C3)cn1` [Compound 268, 1-(5-cyanopyrazin-2-yl)-3-(1,1-dioxidobenzo[b]thiophen-6-yl)urea], for which, in experiment [2] (setting [4]), the ΔTm at 12.5 µM was found to be 0.39 °C. In addition, in experiment [3], the IC50 came out at 7.79 µM.
On to `N#Cc1cccc(NC(=O)Nc2ccc(Cl)c([N+](=O)[O-])c2)c1` [Compound 238, 1-(4-chloro-3-nitrophenyl)-3-(3-cyanophenyl)urea], for which, in experiment [2] (setting [4]), the shift in melting temperature (ΔTm) at 12.5 µM was determined as 3.49 °C. Besides, the half-inhibitory concentration (IC50) in experiment [3] is 3.1 µM.
`N#Cc1ccc(NC(=O)Nc2cccc(C(F)(F)F)c2)cc1` [Compound 274, 1-(4-cyanophenyl)-3-(3-(trifluoromethyl)phenyl)urea]: the ΔTm at 12.5 µM in experiment [2] (setting [4]) was found to be 1.41 °C.
Regarding `CC(C)c1cc(NC(=O)Nc2ccc3c(c2)S(=O)(=O)C=C3)ccc1C#N` [Compound 263, 1-(4-cyano-3-isopropylphenyl)-3-(1,1-dioxidobenzo[b]thiophen-6-yl)urea], the thermal shift (ΔTm) at 12.5 µM in experiment [2] (setting [4]) worked out at 1.25 °C.
Take `CN(C)CCc1ccc(NC(=O)Nc2ccc(C#N)cc2)cc1S(=O)(=O)C(F)(F)F` [Compound 287, 1-(4-cyanophenyl)-3-(4-(2-(dimethylamino)ethyl)-3-((trifluoromethyl)sulfonyl)phenyl)urea]: in experiment [3], the half-maximal inhibitory concentration (IC50) is > 10 µM.
Consider `N#Cc1ccc(NC(=O)Nc2ccc(C#N)c(C(F)(F)F)c2)cc1C(F)(F)F` [Compound 252, 1,3-bis(4-cyano-3-(trifluoromethyl)phenyl)urea], for which, in experiment [2], the thermal shift (ΔTm) at 12.5 µM came to 1.33 °C. Further, the 50% inhibitory concentration (IC50) in experiment [3] was determined as 2.08 µM.
Turning to `COc1cc(NC(=O)Nc2ccc(Cl)c(S(=O)(=O)C(F)(F)F)c2)ccc1C#N` [Compound 248, 1-(4-chloro-3-((trifluoromethyl)sulfonyl)phenyl)-3-(4-cyano-3-methoxyphenyl)urea], the ΔTm at 12.5 µM in experiment [2] (setting [4]) amounted to 2.95 °C. Moreover, the IC50 in experiment [3] was found to be 3.24 µM.
